Results as given in PMC10451034, “Highly Efficient Photosensitizers with Molecular Vibrational Torsion for Cancer Photodynamic Therapy” (ACS Central Science, 2023).

Key:
[1] = Singlet oxygen quantum yield by DPBF decay curve method; format: physicochemical; details: for ΦΔ, singlet oxygen quantum yield: methylene blue as standard, 660 nm irradiation
Description: Afterward, the singlet oxygen yields of the series of molecules were preliminarily measured and analyzed by the 1,3-diphenylisobenzofuran (DPBF) decay curve method (Figures 2d,e and S2). […] Meanwhile, in order to exclude the effect of the rigid structure, ΦΔ of a Cy7-like reference molecule (TCy7C) with a rigidified structure but absence of an oxygen atom was measured. The singlet oxygen yield of TCy7C was 2.2%, even lower than that of TCy7 under the same conditions (Figure S3). […]
(§1) Photoexcited singlet oxygen production was detected by employed 1,3-diphenylisobenzofuran (DPBF) as the indicator. The absorbance of DPBF at 415 nm was regulated to about 1.0 in DCM. And the samples were irradiated with 660 nm light for various times, then the absorption spectra of different time nodes were recorded.
(§2) The singlet oxygen quantum yield (ΦΔ) was calculated by the following equation:
(§3) Where “Φ” represent the singlet oxygen quantum yield , “sam” and “std” represent QTCy7-R and MB, respectively. “m” is the slope of the absorbance of DPBF at 415 nm with time, F=1–10-O.D. (O.D. is the absorbance of samples at 660 nm). […]

[2] = Triplet lifetime by laser flash photolysis; format: physicochemical; details: 5 μM in deaerated dichloromethane, λex = 610 nm
Excerpt: To probe the mechanism of the observed phenomenon and further validate our hypothesis, ultrafast excited-state dynamic behaviors were implemented by using femtosecond transient absorption spectroscopy (fs-TA) (Figures 3a and S4a–c). In order to obtain the complete process of excited states, a 350 nm laser was chosen as a pump to populate the high singlet excited states (Sn) from the ground state (S0). […] With the growth of delay time, the ESA of S1 gradually decayed (τ = 7.65 ps); meanwhile, beyond our expectation, accompanied by a particularly noticeable peak at ca. 583 nm increasing promptly, this new emerging ESA peak reached its maximum within about 21.98 ps. Similar phenomena were found in the transient spectra of the other three compounds (Figures S4d–f). However, for the control TCy7, there was no obvious formation of another ESA peak in transient spectra (Figure S5). […] Furthermore, the rate of X state formation was calculated to be 4.54 × 10^10 s^–1 for QTCy7-Ac based on the rise time (kX = 1/τX,rise), which was close to the order of magnitude of the intramolecular distorted vibration behavior. […] Meanwhile, the triplet lifetime of this series of molecules was evaluated and inspected for further applications (Figures 3d and S4g–i). […]
as §1, §2, §3
The triplet life of QTCy7-R was measured by LP980 laser flash photolysis spectrometer (Edinburgh Instruments Ltd.) in combination with a Nd:YAG laser (Surelite I-10, Continuum Electro-Optics, Inc.). […]

HepG2 cells = assay: Confocal imaging of cellular uptake, subcellular localization and membrane damage; format: cell-based, human; details: for cellular distribution / Pearson correlation (colocalization) coefficient with MitoTracker Green: HepG2 cells; for cellular distribution: incubated 90 min; for Pearson correlation (colocalization) coefficient with MitoTracker Green: mitochondria; for cell membrane damage on illumination: CLSM, illumination 0-4 min; for photostability in cells: fluorescence intensity in cells during light irradiation
Description: In view of QTCy7-R having strong singlet oxygen generation potency and reasonable wavelength, human hepatocellular carcinoma cells were selected for photoactivity experiments in vitro. On account of their low molecular weights and intrinsic positive cationic charge, QTCy7-R could be quickly taken up by cells within 90 min (Figure S19a,b). […] According to our supposition, the enhanced partial cationic charge caused by the introduction of the EWG in QTCy7-Ac or QTCy7-CHO made it easier for them to cling to the cell membrane with negative charge than to cross it.
Next, in order to verify the disruption effect on cell structural integrity of the ^1O2 generation by QTCy7-R under irradiation, JC-1 staining imaging was conducted to monitor the mitochondria membrane potential. […] On the other hand, cell membrane damage caused by the photooxidation of QTCy7-Ac and QTCy7-CHO could be confirmed by a visualized observation. […] Furthermore, the lactate dehydrogenase (LDH) content in cell culture medium was measured to characterize the extent of cell membrane damage.[49] […]
medium (DMEM, Invitrogen) with 10 % fetal bovine serum (Invitrogen) and 1% penicillinstreptomycin. All cells were treated at 37 °C with the humidified atmosphere containing 5% CO2 and 95% air. Before conducting cell imaging experiments, all types of cells were maintained on 35 mm glass-bottom cell dishes for 24 h.
Confocal fluorescence imaging
After culturing the cells in 35 mm glass-bottom cell dishes for 24 h, the DMEM medium was replaced with saline, then QTCy7-R was added (3 μM). The confocal fluorescence imaging was carried out and images were recorded. (λex = 640 nm, λem = 680-780 nm). In the suborganelle localization experiment s, the cells were incubated with 3 μM QTCy7-R for 90 min and then stained with LysoTracker Green DND 26 (200 nM) and MitoTracker Green FM (200 nM), respectively. After fluorescence imaging, colocalization coefficient was analyzed and recorded. (LysoTracker Green DND 26 and MitoTracker Green FM: λex = 488 nm, λem = 500-550 nm). […]

Row | Compound | ΦΔ, singlet oxygen quantum yield ([1]; in dichloromethane) | triplet lifetime [2] | cellular distribution (HepG2 cells) | Pearson correlation (colocalization) coefficient with MitoTracker Green (HepG2 cells) | ΦΔ, singlet oxygen yield ([1]; in dichloromethane, DPBF method) [%] | singlet oxygen yield relative to TCy7 ([1]; under NIR irradiation) [fold] | cell membrane damage on illumination (HepG2 cells) | photostability in cells (HepG2 cells)
1 | CCN1/C(=C/C=C2\C=C(C)C=C(/C=C/c3sc4ccccc4[n+]3CC)C2=O)Sc2ccccc21 [QTCy7-Me] | 0.225 | about 12 μs | could get inside cells | 0.92 | – | – | – | –
2 | CCOC(=O)C1=C/C(=C\C=C2/Sc3ccccc3N2CC)C(=O)C(/C=C/c2sc3ccccc3[n+]2CC)=C1 [QTCy7-Ac] | 0.338 | – | effectively adhere to the cell membrane | – | 33.8 | 13 | formation of distinct bubblelike structures | good photostability
3 | CCN1/C(=C/C=C2\C=C(c3ccccc3)C=C(/C=C/c3sc4ccccc4[n+]3CC)C2=O)Sc2ccccc21 [QTCy7-Ph] | 0.212 | about 12 μs | could get inside cells | 0.89 | – | – | – | –
4 | CCN1/C(=C/C=C2\C=C(C=O)C=C(/C=C/c3sc4ccccc4[n+]3CC)C2=O)Sc2ccccc21 [QTCy7-CHO] | 0.263 | about 2 μs | effectively adhere to the cell membrane | – | – | – | did not cause severe cell membrane rupture | good photostability
